One test has as its system NIH3T3. In words: staurosporine induced apoptosis in ICAM-2 transduced NIH3T3 (annexin-V binding, BrdU TUNEL). It is filed as cell-based, murine. To be noted: for effect on ICAM-2 anti-apoptotic effect, other kinase inhibitors: cell type not stated, data not shown. Here is the method:
A) Pharmacological inhibitors of PI3K abrogate ICAM-2's anti-apoptotic. ICAM-2, or vector transduced BaF3, cells were treated with staurosporine (1, μM) with (unfilled) or without (filled) the addition of 100, nM wortmannin for 24, hours (left bar graph). Apoptosis was determined by nuclear staining and fluorescence microscopy (left bar graph) and by annexin-V binding assay (right bar graph). The proportion of apoptotic cells in each culture without staurosporine was 8%+/−2. The percentage of apoptotic cells is expressed as the mean (bar)+SD of triplicate cultures. ICAM-2, 1CAM2-AC, or vector transduced NIH3T3, were treated with staurosporine ([…]) in the presence or absence of 10, μM LY294002, for 24, hours (right bar graph). DMSO vehicle served as negative control. The percentage of apoptotic cells is expressed as the mean (bar)+/−SD of triplicate cultures. B) Confocal images of PI3K and AKT localization in ICAM-2, (top) or vector control cells (bottom). C) Confocal images of ezrin and the p85, subunit of PI3K (green) localization in ICAM-2, (top) or vector control cells (bottom).
A) The anti-apoptotic effect of ICAM-2, is both wortmannin and LY294002, sensitive. ICAM-2, or vector transduced BaF3, cells were treated with staurosporine (1, μM) with (unfilled) or without (filled) the addition of 100, nM wortmannin for 24 hours. Apoptosis was determined by nuclear staining and fluorescence microscopy (left bar graph) and by annexin-V binding assay (right bar graph). The proportion of apoptotic cells in each culture without staurosporine was 8%±2. The percentage of apoptotic cells is expressed as the mean (bar)±SD of triplicate cultures. ICAM-2, ICAM2-ΔC, or vector transduced NIH3T3, were treated with staurosporine (1, μM) in the presence or absence of 10, μM LY294002, for 24, hours. DMSO vehicle served as negative control. The percentage of apoptotic cells is expressed as the mean (bar)±SD of triplicate cultures. B) ICAM-2, expressing NIH3T3, cells are sensitive to apoptosis in the presence of PI3K inhibitor LY294002. BrdU TUNEL assay was performed in staurosporine (1, μM) or LY294002, (10, μM) treated ICAM-2, ICAM2-ΔC, and control vector transduced NIH3T3, cells. The percentage of apoptotic cells is expressed as the mean (bar)±SD of triplicate cultures.
Apoptosis was determined either by counting pyknotic nuclei, annexin-V binding by flow cytometry, or TUNEL BrdU staining by flow cytometry as indicated. Apoptosis was induced either by staurosporine (1 μm), treatment with anti-mouse Fas (5 μq/ml Santa Cruz Biotechnology (SCB), […] Fas (5 μg/ml Jo2 Biomed) or anti-human Fas (10 ng/ml CH11 Kamiya Biomedical) as indicated in appropriate experiment, IL-3 withdrawal-(24 hrs) or as indicated. For pyknolic nuclei count, NIH3T3 cells were grown on glass coverslips and assayed for apoptosis. Suspension cells were analyzed by nuclear staining with 25 μM acridine orange/25 μm ethidium bromide or 5 μg/ml Hoechst 33342 (Molecular Probes, Eugene, Oreg.). Apoptosis was identified by the presence of characteristic pyknotic nuclei as described (Jacobson and Raff, 1995). At least 5 individual fields were photographed and counted using a Zeiss axioscope fluorescence microscope. For the survival assay 10^6 NIH3T3 cells were plated in 10 cm dishes and incubated overnight at 37° C. The cells were treated with 1 μM staurosporine for 24 hours. The cells were washed and cultured for 24 hours in complete medium. The cells were trypsinized and viable cells counted following trypan blue staining. Untreated cells were counted at the time of treatment. % survival represents (number of viable cells post-treatment)/(number of viable cells pretreatment). FACS based annexin-V-FITC/PI staining was done as described (PharMingen). TUNEL assay was performed as described by manufacturer of Apoptosis BrdU kit (Promega). […]

Another test concerns p44/42 MAPK. Nature of the test: intracellular phospho-p44/42 MAPK by flow cytometry in ICAM-2 treated Jurkat cells. Format: cell-based, human. To be noted: chemical agents 10 μM, EDTA 1 mM; mAbs titrated prior to ICAM-2. The source says:
A) Mean fluorescent intensity values (MFI) of ICAM-2-FITC (adhesion) and mAb24-Alexa633, (LFA-1, activation) in treated Jurkat cells (as above). Control unstimulated and/or compound pretreated values were subtracted. B) Top panel: Intracellular phospho-p44/42, MAPK detection as a function of ICAM-2, dose in Jurkat cells by flow cytometry (see Material and Methods). Mean fluorescent intensity values (MFI) were plotted±standard deviation (SD). Bottom panel: ICAM-2, treated Jurkat cells were stained for intracellular phospho-p44/42, MAPK as described above. mAbs to β2, and αL, integrins (10, μg/ml, 10, minutes) were titrated prior to ICAM-2, treatment as indicated and plotted for MFI±SD. C) ICAM-2, induced p44/42, MAPK activity is blocked by β2, and αL, integrin antibodies as determined by a p44/42 MAPK kinase assay. Conditions for induction and inhibition are as described above. Recombinant active p44/42, MAPK served as an internal positive control (denoted by “+”). D) Inhibition and activation profile for intracellular phospho-p44/42, by flow cytometry in the presences of chemical agents (10, μM), EDTA (1, mM), or PMA, ionomycin and ICAM-2, stimulus (as indicated above). MFI values±SD are plotted.
(§1) Intracellular and extracellular staining was performed as described (Perez and Nolan, 2002). Intracellular probes for active kinases were made by conjugating phospho-specific antibodies to the ALEXA FLUOR® dye series as described and used in phospho-protein optimized conditions (Perez and Nolan, 2002). Kinetic analyses was performed by direct application of fixation buffer in time synchronized 96-wells maintained at 37° C. Intracellular actin and microtubule staining was performed using phalloidin-Alexa633 and taxol-Alexa546 dyes (Molecular Probes). Adhesion and clustering assays were performed using ICAM-2-FITC as described in text. LFA-1 activation was assessed by either mAb24-Alexa633 or mAb24-Alexa546 conjugate, surface stained at 37° C. Flow cytometry data are representative of 3 independent experiments of 10^6 cells/sample. 10-50,000 events were collected and manually calibrated on a FACSCalibur™ machine. Data plotted in bar graph format is expressed as geometric mean fluorescence intensity (MFI) and normalized for isotype controls. Log ratios are defined as the MFI of stimulus to the MFI of unstimulated cells. Data was analyzed using Flowjo™ software (Treestar).

In the next test the test system is Pyk2. Nature of the test: sICAM-2 induced Pyk2 phosphorylation (phospho-tyrosine based ELISA, chemical genetic approach). To be noted: phospho-tyrosine based ELISA. It is filed as cell-based. The source says:
E) depicts that LFA-1, induced phosphorylation of Pyk2, and Syk is dependent on PKC. We screened for the inhibition of sICAM-2, induced Pyk2, and Syk phosphorylation by chemical inhibitors to tyrosine kinases using a phospho-tyrosine based ELISA. Pyk2, phosphorylation was abrogated in the presence of PKC inhibitors bisindolymaleimide II (BIM II) and staurosporine (STP), in addition to tyrphostin A9, a specific Pyk2, inhibitor. a Pyk2, phosphorylation was also affected by inhibitors of phospholipase Cg (neomycin), inhibitors of Syk (piceatannol), and PKC inhibitor BIM I. Syk phosphorylation was completely abolished by inhibition of Pyk2, PLCg1, and strongly affected by PKC inhibitors. Thus, both Pyk2, and Syk phosphorylations were dependent on PKC activity, while Syk phosphorylation was additionally dependent on PLCg1, and Pyk2, activity. It was not possible to assess specific PKC isozymes by this method.
A chemical genetic approach was undertaken to determine the hierarchy of PKC, Pyk2, PLCg1, and Syk activities in response to sICAM-2, stimulus by verifying phosphorylation status of each kinase in the presence of respective chemical inhibitors. Inhibition of PKC with BIM II abrogated phosphorylation of Pyk2, PLCg1, and Syk. Inhibition of PLCg1, by neomycin abrogated phosphorylation of Syk, with no inhibition observed for Pyk2. […] Thus, the upstream signaling events from LFA-1, to Raf-1, appear to involve PKC/Pyk2/PLCg1/Syk. […] We are currently pursuing these complexes in a separate study.
A general note: An ELISA detects its analyte on a solid surface through an enzyme-linked reagent.

Test [1] concerns LFA-1. Nature of the test: LFA-1 activation by mAb24-Alexa633 staining, flow cytometry. To be noted: Jurkat cells; agents 10 μM 30 min, PMA 1 μg/ml, prior to ICAM-2 10 μg/ml 30 min. It is filed as cell-based, human. Here is the method: A) Confocal microscopy of actin and microtubule architecture upon ICAM-2, stimulus (10, μg/ml, 30, min) in Jurkat cells. Actin was stained by phalloidin-alexa633, and tubulin by taxol-alexa546. Inserts display enlarged cell image of representative treatment B) Flow cytometric staining for actin and microtubules as described above. C) Left: Fluorescence topography analysis of ICAM-2-FITC (1 μg/ml, time as indicated) surface distribution. Intensity color gradient depicts high and low fluorescent intensity values. Right: Confocal microscopy of ICAM-2-FITC surface binding (10 μg/ml, 30, min) and anti-β2-alexa568, (clone CTB104). D) Staining for ICAM-2-FITC surface binding (fluorescence intensity) and surface distribution (fluorescence pulse) in cytochalisin D treated Jurkat cells at 37° C. and 4° C. by flow cytometry. E) Values for ICAM-2-FITC fluorescence intensity per time-of-flight per cell as described in text. F) Flow cytometric staining for LFA-1 activation by mAb24-alexa633. Stimuli as indicated (10, μM, 30, min), PMA (1, μg/ml) prior to ICAM-2, stimulation (10, μg/ml, 30, min). Staining was performed at 37° C. G) Mean fluorescence intensity (MFI) values of mAb24-633, and ICAM-2, cluster values, computed as described above, as a function of time.
as §1
Background: In flow cytometry, cells or beads pass a laser one at a time.

The target of test [2] is LFA-1 (Homo sapiens, UniProt P20701). To be noted: cited from earlier work.
Sequence of LFA-1 (Homo sapiens, UniProt P20701) (P20701 26-1170): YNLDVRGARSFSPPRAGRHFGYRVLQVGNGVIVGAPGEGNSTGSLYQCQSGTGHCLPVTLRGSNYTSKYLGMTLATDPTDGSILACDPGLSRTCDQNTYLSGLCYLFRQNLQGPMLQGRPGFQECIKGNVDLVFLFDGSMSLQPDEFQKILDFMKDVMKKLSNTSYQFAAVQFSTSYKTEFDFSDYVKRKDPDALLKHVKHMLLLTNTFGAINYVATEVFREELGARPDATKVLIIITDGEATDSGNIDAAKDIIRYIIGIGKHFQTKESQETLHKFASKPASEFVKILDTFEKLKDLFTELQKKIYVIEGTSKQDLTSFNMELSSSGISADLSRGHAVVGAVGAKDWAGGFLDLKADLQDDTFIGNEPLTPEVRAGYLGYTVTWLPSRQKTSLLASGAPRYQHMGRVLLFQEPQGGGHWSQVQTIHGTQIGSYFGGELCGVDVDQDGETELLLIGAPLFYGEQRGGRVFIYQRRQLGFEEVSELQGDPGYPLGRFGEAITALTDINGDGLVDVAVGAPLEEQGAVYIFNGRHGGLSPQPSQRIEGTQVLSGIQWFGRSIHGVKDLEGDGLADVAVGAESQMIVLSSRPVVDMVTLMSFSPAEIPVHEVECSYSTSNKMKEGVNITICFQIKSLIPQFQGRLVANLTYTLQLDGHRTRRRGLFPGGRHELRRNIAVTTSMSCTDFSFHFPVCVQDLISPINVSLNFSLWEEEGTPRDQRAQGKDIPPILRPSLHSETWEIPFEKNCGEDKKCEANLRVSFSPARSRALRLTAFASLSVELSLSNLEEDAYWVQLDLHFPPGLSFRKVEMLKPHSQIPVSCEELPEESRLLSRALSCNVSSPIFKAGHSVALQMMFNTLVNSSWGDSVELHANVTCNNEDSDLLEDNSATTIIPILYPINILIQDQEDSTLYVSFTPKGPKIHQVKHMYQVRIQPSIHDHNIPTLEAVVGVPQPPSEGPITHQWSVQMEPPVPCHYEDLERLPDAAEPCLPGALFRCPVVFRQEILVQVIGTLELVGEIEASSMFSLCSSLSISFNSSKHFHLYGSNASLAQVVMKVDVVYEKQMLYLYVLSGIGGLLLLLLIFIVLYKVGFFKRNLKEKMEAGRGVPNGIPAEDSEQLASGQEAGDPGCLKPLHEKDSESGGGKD
Sequence of LFA-1 (Homo sapiens, UniProt P20701) (P05107 23-769 partner): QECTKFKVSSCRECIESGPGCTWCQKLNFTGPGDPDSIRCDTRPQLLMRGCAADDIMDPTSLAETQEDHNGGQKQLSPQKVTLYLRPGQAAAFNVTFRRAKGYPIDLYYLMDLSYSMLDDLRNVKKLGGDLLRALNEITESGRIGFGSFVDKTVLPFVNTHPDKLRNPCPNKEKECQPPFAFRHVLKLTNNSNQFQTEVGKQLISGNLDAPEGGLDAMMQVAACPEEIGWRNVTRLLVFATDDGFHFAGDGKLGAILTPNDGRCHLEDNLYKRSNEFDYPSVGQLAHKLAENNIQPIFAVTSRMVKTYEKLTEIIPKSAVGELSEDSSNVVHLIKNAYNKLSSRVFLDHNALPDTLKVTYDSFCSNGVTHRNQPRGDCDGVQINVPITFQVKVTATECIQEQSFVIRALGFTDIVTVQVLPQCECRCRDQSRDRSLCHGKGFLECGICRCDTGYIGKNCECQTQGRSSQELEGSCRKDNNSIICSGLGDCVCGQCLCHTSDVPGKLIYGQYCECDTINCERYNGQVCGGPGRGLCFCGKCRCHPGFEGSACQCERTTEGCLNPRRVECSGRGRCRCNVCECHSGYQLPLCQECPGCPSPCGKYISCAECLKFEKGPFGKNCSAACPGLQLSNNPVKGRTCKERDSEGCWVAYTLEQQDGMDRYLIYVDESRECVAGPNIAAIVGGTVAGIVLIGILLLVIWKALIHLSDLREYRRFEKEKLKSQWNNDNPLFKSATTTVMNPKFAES

On to `C[S+]([O-])c1ccc(-c2nc(-c3ccncc3)c(-c3ccc(F)cc3)[nH]2)cc1` (stereo not drawn) [SB 203580], for which the “effect on ICAM-2 anti-apoptotic effect, other kinase inhibitors” value (“effect … other kinase inhibitors” below) in the test on NIH3T3 is on record as “not abrogated”.

As for `O=C(O)CN(CCN(CC(=O)O)CC(=O)O)CC(=O)O` [EDTA], the “effect on ICAM-2 induced p44/42 MAPK phosphorylation” value with p44/42 MAPK was “diminished”.

For `N#CC(=C(/N)Sc1ccccc1N)/C(C#N)=C(\N)Sc1ccccc1N` [U0126], the “effect … other kinase inhibitors” value in the test on NIH3T3 is “not abrogated”.

Consider `CN[C@@H]1C[C@H]2O[C@@](C)([C@@H]1OC)n1c3ccccc3c3c4c(c5c6ccccc6n2c5c31)C(=O)NC4` [staurosporine], for which, in the test with Pyk2, the “sICAM-2 induced Pyk2 phosphorylation” value is “abrogated”. In the test on NIH3T3 (PKC isozyme inhibitors, system not specified), the “ICAM-2 induced survival signal” value is “did not abrogate”.

Consider `CCCCCCCCCCCCCC(=O)O[C@@H]1[C@@H](C)[C@@]2(O)[C@@H](C=C(CO)C[C@]3(O)C(=O)C(C)=C[C@@H]23)[C@@H]2C(C)(C)[C@]12OC(C)=O` [PMA, phorbol myristelated acetate], for which, in the test on LFA-1 [1], the “LFA-1 activation (mAb24 binding)” value was “induction”.

In the case of `COC(=O)Nc1nc2cc(C(=O)c3cccs3)ccc2[nH]1` [nocodazole], the “effect on ICAM-2 induced p44/42 MAPK phosphorylation” value in the test with p44/42 MAPK is reported as “diminished”. The “LFA-1 activation (mAb24 binding)” value in the test on LFA-1 [1] is “full activation of LFA-1”.

Take “P1: synthesized peptide of ICAM-2's first Ig domain (P1, amino acids 21-42) (GSDEKVFEVHVRPKKLAVEPKG; UniProt P13598 21-42, looked up, fragment)”: the “concentration inducing LFA-1 mediated adhesion” value with LFA-1 [2] (bulk cellular adhesion assay) was 62 µM. In the test with LFA-1 [2], the calcium influx entry is recorded as “did not induce calcium influx” and the “induction of the active conformation of LFA-1” value is on record as “did not induce the active conformation of LFA-1”.

Regarding `O=S(=O)(NCCNC/C=C/c1ccc(Br)cc1)c1cccc2cnccc12` [H-89], the “effect … other kinase inhibitors” value with NIH3T3 is reported as “not abrogated”.

Take `CC(=O)O[C@H]1C(=O)[C@@]2(C)[C@H]([C@H](OC(=O)c3ccccc3)[C@]3(O)C[C@H](OC(=O)[C@H](O)[C@@H](NC(=O)c4ccccc4)c4ccccc4)C(C)=C1C3(C)C)[C@]1(OC(C)=O)CO[C@@H]1C[C@@H]2O` [taxol]: in the test with p44/42 MAPK, the “effect on ICAM-2 induced p44/42 MAPK phosphorylation” value is on record as “diminished”. Besides, in the test with LFA-1 [1], the “LFA-1 activation (mAb24 binding)” value is recorded as “full activation of LFA-1”.

For the compound `Cc1cc(O)c2c(c1)C(=O)c1cc(O)cc(O)c1C2=O` [Emodin], in the test with p44/42 MAPK, the “effect on ICAM-2 induced p44/42 MAPK phosphorylation” value is on record as “no effect”.

The record behind these values is patent US8962263B2, “Methods and compositions for detecting the activation state of multiple proteins in single cells” (The Board of Trustees of the Leland Stanford Junior …, priority 2001, dated 2015).
